Measured values published in the NIST ThermoML archive (doi:10.1021/acs.jced.5b00552).
± gives the expanded uncertainty stated by the source.

Assay: xn = mol fraction of the nth substance listed
Settings: 100 kPa, Liquid, Vibrating tube method

`Cc1ncc(CO)c(CO)c1O.Cl` [5-hydroxy-6-methyl-3,4-pyridinedimethanol hydrochloride] + O gave a mass density (293.15 K, x1 = 0.01626) of 1093.5 ± 6.3 kg/m3, a mass density (298.15 K, x1 = 0.01886) of 1104.7 ± 6.4 kg/m3 and a mass density (303.15 K, x1 = 0.02222) of 1111 ± 6.5 kg/m3. For the same molecule, the mass density (308.15 K, x1 = 0.02522) was 1120.8 ± 6.6 kg/m3, the mass density (313.15 K, x1 = 0.02666) was 1133.3 ± 7 kg/m3 and the mass density (318.15 K, x1 = 0.02818) was 1141.5 ± 6.8 kg/m3. For the same molecule, the mass density (323.15 K, x1 = 0.0329) was 1154.6 ± 7.1 kg/m3.
